Source: patent US5462926A (Biomeasure, Inc., priority 1993, dated 1995)
Read-outs that look alike come from different tables or passages of the source. Where a SMILES comes first, the peptide text is derived from it. Bridges are numbered along the chain shown (N, C = ends). [ ]: non-standard residue; d: D form. 2Nal = N[C@@H](Cc1ccc2ccccc2c1)C(=O)O; Lys(Et2) = CCN(CC)CCCC[C@H](N)C(=O)O

Tests used:
NMB receptor = molecular target: T1, NMB receptor (Rattus norvegicus, UniProt P24053); experiment: [3H]inositol phosphates in NMB-R transfected cells (alone or NMB-stimulated); assay type: cell-based; design: a full length NMB-preferring bombesin receptor clone generated from rat esophagus; expressed in transfected cells; conditions: NMB-R transfected cells; for IC50 / effect at 10 μM on NMB-stimulated increase in [3H]IP: 3 nM NMB; for [3H]IP, analog Alone (10 μM): analog 10 μM alone, control 13 ± 3; for [3H]IP, analog Plus NMB (3 nM): analog 10 μM plus NMB 3 nM, NMB without analog 186 ± 58
T1 sequence (P24053 1-390): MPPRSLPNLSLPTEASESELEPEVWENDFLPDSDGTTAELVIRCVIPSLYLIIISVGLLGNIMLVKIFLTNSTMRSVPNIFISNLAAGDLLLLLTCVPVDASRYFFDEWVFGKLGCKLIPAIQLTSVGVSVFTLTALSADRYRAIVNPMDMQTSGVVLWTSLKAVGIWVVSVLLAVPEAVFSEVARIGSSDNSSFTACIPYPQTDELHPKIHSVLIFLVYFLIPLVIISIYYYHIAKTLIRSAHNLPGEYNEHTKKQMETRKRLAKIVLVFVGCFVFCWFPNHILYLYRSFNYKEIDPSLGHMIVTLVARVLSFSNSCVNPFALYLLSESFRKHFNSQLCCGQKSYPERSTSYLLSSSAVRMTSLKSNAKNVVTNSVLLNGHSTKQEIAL
Experimental: As described previously [Wada, E., et al. Neuron 6:421 (1991)], BALB 3T3 cells expressing a stably transfected rat NMB receptor (NMB-R transfected cells) were obtained using calcium phosphate precipitation of a full length NMB-preferring bombesin receptor clone generated from rat esophagus and subcloned into a modified version of the pCD2 plasmid. Cells were passaged every 3-4 days at confluence, using 0.1% trypsin in 1 mM EDTA. Rat glioblastoma C-6 tumor cells were maintained similarly and were passaged weekly at confluence. Both cell lines were cultured at 37° C. in a 5% CO2 atmosphere. Rat AR 42J pancreatic acinar cells were cultured in Dulbecco's modified Eagle's medium (DMEM) without antibiotics and supplemented with 10% (vol/vol) fetal calf serum. The incubation atmosphere consisted of 10% CO2 -90% humidified air at 37° C.
Measurement of phosphoinositides
Total phosphoinositides in C-6 cells and in NMB-R transfected cells were determined as described previously, with minor modifications [Benya, R. V. et al. Mol. Pharmacol. 42:1058 (1992); and Wang, L-H. et al. Biochem. Jo 286:641 (1992)]. Cells were grown to confluence in 24-well plates and then loaded with 100 μCi/ml myo-[2-^3 H]inositol in Dulbecco's modified essential medium with 2% fetal bovine serum at 37° C. for 48 hrs. Cells were washed and incubated in phosphoinositide buffer (standard buffer additionally containing 10 mM LiCl, 20 mM HEPES, 2 mM CaCl2, 2% BSA, and 1.2 mM MgSO4) for 15 min and then for 60 min at 37° C. with agonists at various concentrations or with 3 nM NMB (a half-maximal effective concentration) and possible antagonists at different concentrations. Reactions were halted using ice-cold 1% HCl in methanol, and the inositol phosphates (IP) were isolated as described previously [Bologna, M. et al. Cancer 63:1714 (1989); and Endo, T. et al. J. Endocrinolo 131:313 (1991)]. Briefly, after loading of the anion exchange column, free [^3 H]glycerophosphorylinositol was removed by washing with 5 mM disodium tetraborate in 60 mM sodium formate. Total [^3 H]inositol phosphates were then eluted using 100 mM formic acid in 1.0M ammonium formate as described previously [Benya, R. V. et al. Mol. Pharmacol. 42:1058 (1992); and Wang, L-H. et al. Biochem. J. 286:641 (1992 )].

GRP receptor = GRP receptor (Rattus norvegicus, UniProt P52500); experiment: Amylase release from rat pancreatic acini (alone or Bn-stimulated); assay type: cell-based; design: from tissue; host or cells: dispersed pancreatic acini; conditions: for Amylase Release, analog Alone (10 μM): analog 10 μM alone, control 4 ± 1; for Amylase Release, analog Plus Bn (0.3 nM): analog 10 μM plus Bn 0.3 nM, Bn without analog 15 ± 1; for IC50: read-out: IC50 Amylase Release, GRP Receptor, Rat Pancreatic Acini
Chain of GRP receptor (P52500 whole entry): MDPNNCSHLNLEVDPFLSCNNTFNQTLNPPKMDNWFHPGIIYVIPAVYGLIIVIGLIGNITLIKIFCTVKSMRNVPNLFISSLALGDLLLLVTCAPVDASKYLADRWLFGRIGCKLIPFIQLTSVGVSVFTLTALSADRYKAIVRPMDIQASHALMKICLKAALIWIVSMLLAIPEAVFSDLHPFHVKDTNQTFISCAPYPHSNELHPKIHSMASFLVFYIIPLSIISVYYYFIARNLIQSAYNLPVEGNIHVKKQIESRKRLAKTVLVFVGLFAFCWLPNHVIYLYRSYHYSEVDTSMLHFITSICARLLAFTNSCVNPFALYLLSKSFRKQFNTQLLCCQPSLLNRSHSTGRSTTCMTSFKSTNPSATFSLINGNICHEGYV
Experimental: pancreatic acini or [^3 H]myo[2H]inositolloaded NMBR transfected cell
were incubated either with no additives, the somatostatin octapeptide
analog, Bn, or NMB, or a combination for 30 min at 37° C.. Amylase
release from pancreatic acini was expressed at the indicated percent of
the total cellular amylase released during the incubation. [^3 H]IP i
expressed in dpm's. To test for inhibitory effects, the effect of
somatostatin analog (10 μM) was determined on 0.3 nM Bnstimulated

[1] = molecular target: T2, GRP receptors on rat pancreatic acini (Rattus norvegicus, UniProt P52500); experiment: Binding of 125I-[Tyr4]bombesin to pancreatic acini; conditions: read-out: Ki 125I-[Tyr4]Bn Binding, GRP Receptor, Rat Pancreatic Acini; Ki by Cheng method
T2 construct: from tissue; host or cells: dispersed pancreatic acini
T2 sequence (P52500 whole entry): as above
Description: Nonsaturable binding was<10% of total binding in all experiments.

rat NMB receptor = molecular target: T3, rat NMB receptor (Rattus norvegicus, UniProt P24053); experiment: Binding of 125I-[D-Tyr0]NMB to NMB-R transfected BALB 3T3 cells
T3 construct: a full length NMB-preferring bombesin receptor clone generated from rat esophagus; expressed in transfected cells
T3 sequence (P24053 1-390): T1 sequence (P24053 1-390)
Experimental: Cells were passaged every 3-4 days at confluence, using 0.1% trypsin in 1 mM EDTA. Rat glioblastoma C-6 tumor cells were maintained similarly and were passaged weekly at confluence. Both cell lines were cultured at 37° C. in a 5% CO2 atmosphere. Rat AR 42J pancreatic acinar cells were cultured in Dulbecco's modified Eagle's medium (DMEM) without antibiotics and supplemented with 10% (vol/vol) fetal calf serum. The incubation atmosphere consisted of 10% CO2 -90% humidified air at 37° C.

[2] = molecular target: T4, NMB receptors on C-6 cells (Rattus norvegicus, UniProt P24053); experiment: Binding of 125I-[D-Tyr0]NMB to C-6 glioblastoma cells; conditions: Ki by Cheng method, read-out: Ki 125I-NMB Binding, NMB Receptor, C-6 Cells
T4 construct: endogenous in cells; host or cells: rat glioblastoma C-6 cells
T4 sequence (P24053 1-390): T1 sequence (P24053 1-390)
Experimental: Binding of ^125 I-[D-Tyr^0 ]NMB to C-6 glioblastoma and NMB-R transfected cells
Binding studies using rat glioblastoma C-6 or NMB-R transfected cells were performed as described previously [Benya, R. V. et al. Mol. Pharmacol. 42:1058 (1992); and Wang, L-H. et al. Biochem. J. 286:641 (1992)] by suspending disaggregated cells in binding buffer, which was composed of standing buffer ([…], 7.7 mM KCl, 1.0 mM EGTA, 0.02% soybean trypsin inhibitor) additionally containing 50 mM HEPES, 1 mM MgCl2, 1.5 mM CaCl2, 2.2 mM KH2 PO4, 0,015% glutamine, and 0.2% BSA (w/v) (pH 7.4). Incubations contained 75 pM ^125 I-[D-Tyr^0 ]NMB and 15×10^6 C-6 cells/ml or 2×10^6 NMB-R transfected cells/ml, for 60 min at 22° C. Nonsaturable binding of ^125 I-[D-Tyr^0 ]NMB was the amount of radioactivity associated with C-6 cells or NMB-R transfected cells when the incubation mixture contained […] NMB. Nonsaturable binding was<15% of total binding in all experiments; all values are reported herein as saturable binding (i.e., total minus nonsaturable binding).

[3] = read-out: IC50 NMB-stimulated [3H]IP, NMB Receptor, Transfected Cells
[4] = NMB-R transfected BALB 3T3 cells, Ki by Cheng method, read-out: Ki 125I-NMB Binding, NMB Receptor, Transfected Cells
[5] = NMB-R transfected cells, value or range given for a group, read-out: K1, 125I-NMB binding to NMB-R transfected cells (text)
[6] = read-out: IC50 NMB-stimulated [3H]IP, Transfected Cells (values in μM)

| IC50 (NMB receptor; [3]) [µM] | [3H]IP, analog Alone (10 μM) (NMB receptor) [dym × 10^3] | [3H]IP, analog Plus NMB (3 nM) (NMB receptor) [dym × 10^3] | Amylase Release, analog Alone (10 μM) (GRP receptor) [% total] | Amylase Release, analog Plus Bn (0.3 nM) (GRP receptor) [% total] | IC50 (GRP receptor) [µM] | Ki [1] [µM] | Ki (rat NMB receptor; [4]) [µM] | fold by which cyclo SS-octa is more potent than the analog, 125I-NMB binding (rat NMB receptor; NMB-R transfected cells) [fold] | Ki (rat NMB receptor; [5]) [µM] | Ki [2] [µM] | Compound | effect at 10 μM on NMB-stimulated increase in [3H]IP (NMB receptor) | IC50 (NMB receptor; [6]) [µM] |
| --- | --- | --- | --- | --- | --- | --- | --- | --- | --- | --- | --- | --- | --- |
| > 10 | 11 ± 2 | 188 ± 30 | 3 ± 1 | 14 ± 2 | > 10 | > 10 | 16.4 ± 4.46 | 69 | 14 to 19 | 8.29 ± 2.43 | C[C@@H](O)[C@H](NC(=O)[C@@H]1CSSC[C@H](NC(=O)[C@H](N)Cc2ccc3ccccc3c2)C(=O)N[C@@H](Cc2ccc(O)cc2)C(=O)N[C@H](Cc2c[nH]c3ccccc23)C(=O)N[C@@H](CCCCN)C(=O)N[C@@H]([C@@H](C)O)C(=O)N1)C(N)=O [Analog #6] | no effect | – |
| 7.21 ± 2.79 | 11 ± 2 | 73 ± 15 | 5 ± 1 | 12 ± 1 | > 10 | > 10 | 3.95 ± 0.509 | 18 | 3.9 to 4.4 | 1.09 ± 0.038 | CCN(CC)CCCC[C@@H]1NC(=O)[C@@H](Cc2c[nH]c3ccccc23)NC(=O)[C@H](Cc2ccc(O)cc2)NC(=O)[C@@H](NC(=O)[C@H](N)Cc2ccccc2)CSSC[C@@H](C(=O)N[C@@H](Cc2ccc3ccccc3c2)C(N)=O)NC(=O)[C@H]([C@@H](C)O)NC1=O [Analog #16, H2 -D-Phe-Cys-Tyr-D-TrP-Lys(diEt)-Thr-Cys-Nal-NH2] (H-[dF]CY[dW][Lys(Et2)]TC[2Nal]-NH2; disulfide 2-7) | – | 7.2 to 9.8 |

| Compound | IC50 (NMB receptor; [3]) [µM] | [3H]IP, analog Alone (10 μM) (NMB receptor) [dym × 10^3] | [3H]IP, analog Plus NMB (3 nM) (NMB receptor) [dym × 10^3] | Amylase Release, analog Alone (10 μM) (GRP receptor) [% total] | Amylase Release, analog Plus Bn (0.3 nM) (GRP receptor) [% total] | IC50 (GRP receptor) [µM] | Ki [1] [µM] | Ki (rat NMB receptor; [4]) [µM] | fold by which cyclo SS-octa is more potent than the analog, 125I-NMB binding (rat NMB receptor; NMB-R transfected cells) [fold] | Ki (rat NMB receptor; [5]) [µM] | Ki [2] [µM] | effect at 10 μM on NMB-stimulated increase in [3H]IP (NMB receptor) | IC50 (NMB receptor; [6]) [µM] |
| --- | --- | --- | --- | --- | --- | --- | --- | --- | --- | --- | --- | --- | --- |
| CC(C)[C@@H]1NC(=O)[C@H](CCCCN)NC(=O)[C@@H](Cc2c[nH]c3ccccc23)NC(=O)[C@H](Cc2ccc3ccccc3c2)NC(=O)[C@@H](NC(=O)[C@H](N)Cc2ccccc2)CSSC[C@@H](C(=O)N[C@H](C(N)=O)[C@@H](C)O)NC1=O [Analog #18] (H-[dF]C[2Nal][dW]KVCT-NH2; disulfide 2-7) | – | 11 ± 1 | 143 ± 11 | – | – | – | – | – | – | 14 to 19 | 8.32 ± 0.957 | no effect | > 10 |
